US20220356169A1, “TETRAZINES FOR HIGH CLICK RELEASE SPEED AND YIELD” (priority 2019, published 2022)

Key:
[1] = Cell proliferation assay (MTT); format: cell-based; details: human, 3 days incubation, mean ± SEM (n = 6), read-out: LS174T cell viability (%)
Protocol: The human colon carcinoma LS174T cell line was obtained from the American Type Culture Collection and cultured in RPMI-1640 medium supplemented with 2 mM glutamine and 10% heat inactivated fetal calf serum. Twenty-four hours prior to the experiment, the cells were plated in 96-well plates at a 5000 cells/well density. The cells were then incubated with serial dilutions (10 nM-1 μM; n=6) of activators 2.7, 2.8, 2.14, 2.16, 2.17, 2.18 and 2.19 in culture medium for 72h at 37° C. The % cell proliferation was assessed by an MTT assay, in comparison to cells incubated in culture medium without activator. No toxicity was observed when the LS174T cells were incubated with the tested activators (and possible metabolites formed in the presence of serum) for 3-days at a 0.01-1 μM activator concentration.

[2] = Second-order rate constant of the IEDDA reaction with TCO 3.2, stopped-flow UV-Vis, pseudo first-order conditions; format: physicochemical; details: 25% MeCN/PBS at 20° C.; mean ± SD (n = 5)
Protocol: The second-order rate constant of the IEDDA reaction between model TCO 3.2 and activators 2.7 or 2.8 in MeCN at 20° C. was determined (n=1) by UV-Vis spectrometry under second-order conditions. A cuvette was filled with a solution of activator (3 mL 0.083 mM in MeCN), and equilibrated at 20° C. Next, a solution of TCO 3.2 (10.0 μL, 25 mM in DMSO) was added. The absorption at 540 nm was measured every second in a time course experiment. From the decay of this absorption, the conversion x was calculated. The second-order rate constant k2 was determined from the slope of the curve of a plot of 1/c-1/c0 versus time. The second-order rate constant of the IEDDA reaction between model TCO 3.2 and activators 2.7, 2.8, 2.14, 2.16, or 2.17 in 25% MeCN/PBS at 20° C. was determined (n=5) by stopped-flow UV-Vis spectrometry under pseudo first-order conditions. Tetrazine solutions (0.25 mM in 25% MeCN/PBS) and TCO 3.2 (3.45 mM in 25% MeCN/PBS) were mixed in a volume ratio of 1:1, resulting in a concentration of 0.125 mM and 1.73 mM, respectively. The absorption at 520 nm was measured every 50 ms, and from the decay of this absorption, the pseudo first-order rate constant k1′ was determined by a nonlinear Simplex regression analysis of the data points using BioKine software. The second-order rate constant k2 was calculated: k2=k1′/c,TCO. As expected for a cycloaddition reaction, the reactivity in PBS is much higher than in MeCN, and importantly the tetrazines of the invention are at least 1 order of magnitude more reactive than the known and high-releasing 3,6-bismethyl-tetrazine (2.17), while giving similar release yields (see Example 7).

[3] = tested on: TCO Trigger on tumor-bound ADC; assay: In vivo reactivity between ADC AVP0458-TCO-MMAE and tetrazine activators (tumor activation study); parameters: species or system mice; details: higher dose (dose 5×: ca. 16.7 μmol/kg)
Protocol: (§1) Female nude Balb/C mice were subcutaneously inoculated ca. 1×10^6 LS174T cells in the hind limb. Biodistribution studies started when the tumors reached 0.1-0.2 cm^3 size. Experiments were carried out to evaluate the reactivity between the TCO Trigger on tumor-bound ADC and activators 2.7, 2.8, 2.14 and 2.16 in LS174T xenografts, as previously performed for other activators [Rossin et al Nature Communications 2018, 9, 1484]. The activators were administered at a 20- to 100-lower dose than that used in previous activation and therapy studies (ca. 0.335 mmol/kg). […] Groups of tumor bearing mice (n=4) were injected with ^125I-labeled ADC (2 mg/kg) followed 48 h later by the activators (dose 1×: ca. 3.3 μmol/kg; dose 5×: ca. 16.7 μmol/kg) and, after 1 h, by [^111In]In-2.20 (ca. 0.33 μmol/kg). One group was injected with the same amount of ^125I-labeled ADC followed only by ^111In-2.20 49 h later. One group was injected only with ^111In-2.20 (non-specific probe binding). All mice were euthanized 23 h post-probe injection and the ^125I and ^111In uptakes in tumors were measured by γ-counting.

[4] = tested on: ADC AVP0458-TCO-MMAE; assay: Triggered drug (MMAE) release from ADC in 50% mouse plasma, HPLC-SIM-MS; details: 50% mouse plasma, 37° C.
Protocol: In a 1.5 mL vial, the following was combined: 650 μL mouse plasma, 600 μL PBS, 20 μL ADC (1.62 μg/μL in PBS) and 7.5 μL d8-MMAE solution (0.167 μg/μL, internal standard). Next, aliquots of 20 μL were prepared to which 5.2 μL of a tetrazine solution (0.25 mM in 1:1 DMSO/H2O) was added and the solution was incubated at 37° C. At various times, 100 μL of cold MeCN was added to the aliquot and the mixture was vortexed, stored at 4° C. for 30 min. and centrifuged. 20 μL of supernatant was taken and combined with 100 μL of 1% formic acid (aq) solution. This sample was analysed with HPLC-SIM-MS to quantify the ratio of free MMAE and d8-MMAE, which is a measure of the release yield.

[5] = Activator stability in PBS at rt (UV decay at 520 nm); format: physicochemical; details: mean ± SD (n = 3)
Protocol: The assessment of activator stability was performed in PBS at rt. Solutions in DMSO (2.5 mM, 20 μL) were diluted with PBS (3.00 mL), filtered, and incubated at rt. The decrease of the absorption band at 520 nm was monitored using UV spectroscopy.

[6] = tested on: LS174T xenografts; assay: MMAE measurement in tumors; format: in vivo, mice; details: 24 h after administration of activator at dose 1×
Protocol: as §1
The concentration of MMAE released in tumors was measured as previously reported [Rossin et al Nature Communications 2018, 9, 1484]. […] For this reason, activator 2.16 was selected for a therapy study in combination with the click-cleavable ADC. At the doses of tc-ADC (4 mg/kg) and 2.16 (dose 10×; 33.5 μmol/kg) used for therapy study, a high level of 339±45 nM free MMAE was detected in tumors.

For `O=C(CCCC(=O)Nc1cccnc1-c1nnc(-c2ncccc2NC(=O)CCCC(=O)NCCOCCOCCOCCOCCOCCOCCOCCOCCOCCO)nn1)NCCOCCOCCOCCOCCOCCOCCOCCOCCOCCO` [2.14, N^1,N^1′-(2,2′-(1,2,4,5-Tetrazine-3,6-diyl)bis(pyridine-3,2-diyl))bis(N^5-(29-hydroxy-3,6,9,12,15,18,21,24,27-nonaoxanonacosyl)glutaramide)], the viability at 72 h, 0.01 μM ([1]; 0.01 μM activator) was 107 ± 3%, the viability at 72 h, 0.1 μM ([1]; 0.1 μM activator) was 104 ± 2.7% and the viability at 72 h, 1 μM ([1]; 1 μM activator) was 97 ± 2.5%. The “Calculated k2 values for the reaction between tetrazine activators and TCO 3.2 in PBS” value [2] was 748 ± 20 M⁻¹ s⁻¹, the “on-tumor reaction yield with the ADC (tumor activation)” value [3] was 94.2±1.8% and the “MMAE release from ADC AVP0458-TCO-MMAE, Release (%)” value (“MMAE release … (%)” for short) ([4]; 2 min after reaction with activator) was 0.6%. For the same molecule, the “MMAE release … (%)” value ([4]; 10 min) was 2.1%, the “MMAE release … (%)” value ([4]; 1 h) was 16.6% and the “MMAE release … (%)” value ([4]; 5 h) was 49.9%. The “MMAE release … (%)” value ([4]; 24 h, mean ± SD (n = 3)) was 80.5 ± 0.3%, the “MMAE release level, in words” value ([4]; after 24h incubation) was “as high as that obtained with the less reactive 2.17” and the half-life at 16.6 µM [5] was 8.7 ± 0.1 h. For the same molecule, the “free MMAE in tumors, comparison of activators” value [6] was “No difference”.
